The values that follow are results of earlier work, collected in US20250064782A1, “Methods of Treating Substance Use Disorders Using 5-MeO-DMT” (Journey Colab Corp., priority 2021, published 2025).

Structures are written as SMILES.

The subject of data set [1] is IL-6. The note with it: Uthaug et al. 2020.
For data set [2] the following is noted: rodents; Shen et al. 2011, Ermakova et al. 2022.

For the compound `COc1ccc2[nH]cc(CCN(C)C)c2c1` [5-MeO-DMT, 5-methoxy-N,N-dimethyltryptamine], the IL-6 levels post-administration result in data set [1] is “significantly decrease IL-6 levels”. The “pharmacokinetics of 5-MeO-DMT” value in data set [2] is “Non-linear pharmacokinetics”.
